Test results reported in US9499550B2 (BRISTOL-MYERS SQUIBB COMPANY, priority 2012, dated 2016).
Read-outs that look alike come from different tables or passages of the source.

Tests used:
[1] = system: HCV genotype 1b (Con1) replicon in HUH-7 cells; assay: HCV replicon luciferase reporter assay, genotype 1b; type: cell-based; settings: Hepatitis C virus, Huh-7, 72 h, HCV genotype 1b replicon luciferase, 3 days incubation
In short: (§1)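 Replicon inhibition for both genotypes was measured as Renilla luciferase signal (EnduRen, 7.5 μM final, 2 h) after 3-day, 37° C exposure of replicon-bearing HUH-7 cells in 4% FCS DMEM, 0.5% DMSO. The 1b construct carries S1179I; the 1a H77 construct carries P1496L and S2204I. Twenty-point, 3-fold dilutions were fitted four-parametrically for EC50, and CC50 was taken from multiplexed Cell Titer-Blue.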

[2] = system: HCV genotype 1a (H77 strain) replicon in HUH-7 cells; assay: HCV replicon luciferase reporter assay, genotype 1a; type: cell-based; settings: Hepatitis C virus, Huh-7, 72 h, HCV genotype 1a replicon luciferase, 3 days incubation
In short: as §1

SMILES	EC50 ([1]; read-out: LE_1b (EC50, range))	EC50 ([2]; read-out: LE_1a (EC50, range))	EC50 ([1]; read-out: LE_1b (EC50))	EC50 ([2]; read-out: LE_1a (EC50))
[2H]C([2H])([2H])C(OC(=O)N[C@@H]1C(=O)N2C[C@H](Oc3nccc4c5c(ccc34)N(C)CCO5)C[C@H]2C(=O)N[C@]2(C(=O)NS(=O)(=O)C3CC3)C[C@H]2/C=C\CC[C@@H](C)C[C@H]1C)(C([2H])([2H])[2H])C(F)(F)F [Compound 5280, 1,1,1,3,3,3-hexadeutero-2-(trifluoromethyl)propan-2-yl((2R,6S,7R,9R,13aS,14aR,16aS,Z)-14a-((cyclopropylsulfonyl)carbamoyl)-7,9-dimethyl-2-((4-methyl-3,4-dihydro-2H-[1,4]oxazino[2,3-f]isoquinolin-7-yl)oxy)-5,16-dioxo-1,2,3,5,6,7,8,9,10,11,13a,14,14a,15,16,16a-hexadecahydrocyclopropa[e]pyrrolo[1,2-a][1,4]diazacyclopentadecin-6-yl)carbamate]	< 5.46 nM	< 5.46 nM	–	–
C[C@H]1CC/C=C\[C@@H]2C[C@@]2(C(=O)NS(=O)(=O)C2CC2)NC(=O)[C@@H]2C[C@@H](Oc3nccc4c5c(ccc34)N(C)CCO5)CN2C(=O)[C@@H](NC(=O)OC(C)(C)C(C)(F)F)[C@H](C)C1 [Compound 5281, 3,3-difluoro-2-methylbutan-2-yl((2R,6S,7R,9S,13aS,14aR,16aS,Z)-14a-((cyclopropylsulfonyl)carbamoyl)-7,9-dimethyl-2-((4-methyl-3,4-dihydro-2H-[1,4]oxazino[2,3-f]isoquinolin-7-yl)oxy)-5,16-dioxo-1,2,3,5,6,7,8,9,10,11,13a,14,14a,15,16,16a-hexadecahydrocyclopropa[e]pyrrolo[1,2-a][1,4]diazacyclopentadecin-6-yl)carbamate]	< 5.46 nM	< 5.46 nM	–	–
C[C@@H]1CC/C=C\[C@@H]2C[C@@]2(C(=O)NS(=O)(=O)C2CC2)NC(=O)[C@@H]2C[C@@H](Oc3nccc4c5c(ccc34)N(C)CCO5)CN2C(=O)[C@@H](NC(=O)OC(C)(C)C(C)(F)F)[C@H](C)C1 [Compound 5282, 3,3-difluoro-2-methylbutan-2-yl((2R,6S,7R,9R,13aS,14aR,16aS,Z)-14a-((cyclopropylsulfonyl)carbamoyl)-7,9-dimethyl-2-((4-methyl-3,4-dihydro-2H-[1,4]oxazino[2,3-f]isoquinolin-7-yl)oxy)-5,16-dioxo-1,2,3,5,6,7,8,9,10,11,13a,14,14a,15,16,16a-hexadecahydrocyclopropa[e]pyrrolo[1,2-a][1,4]diazacyclopentadecin-6-yl)carbamate]	< 5.46 nM	< 5.46 nM	–	–
C[C@H]1CC/C=C\[C@@H]2C[C@@]2(C(=O)NS(=O)(=O)C2CC2)NC(=O)[C@@H]2C[C@@H](Oc3nccc4c5c(ccc34)N(C)CCO5)CN2C(=O)[C@@H](NC(=O)NC(C)(C)C)[C@H](C)C1 [Compound 5283, (2R,6S,7R,9S,13aS,14aR,16aS,Z)-6-(3-(tert-butyl)ureido)-N-(cyclopropylsulfonyl)-7,9-dimethyl-2-((4-methyl-3,4-dihydro-2H-[1,4]oxazino[2,3-f]isoquinolin-7-yl)oxy)-5,16-dioxo-1,2,3,5,6,7,8,9,10,11,13a,14,14a,15,16,16a-hexadecahydrocyclopropa[e]pyrrolo[1,2-a][1,4]diazacyclopentadecine-14a-carboxamide]	< 5.46 nM	< 5.46 nM	3.12 nM	4.82 nM
C[C@@H]1CC/C=C\[C@@H]2C[C@@]2(C(=O)NS(=O)(=O)C2CC2)NC(=O)[C@@H]2C[C@@H](Oc3nccc4c5c(ccc34)N(C)CCO5)CN2C(=O)[C@@H](NC(=O)NC(C)(C)C)[C@H](C)C1 [Compound 5284, (2R,6S,7R,9R,13aS,14aR,16aS,Z)-6-(3-(tert-butyl)ureido)-N-(cyclopropylsulfonyl)-7,9-dimethyl-2-((4-methyl-3,4-dihydro-2H-[1,4]oxazino[2,3-f]isoquinolin-7-yl)oxy)-5,16-dioxo-1,2,3,5,6,7,8,9,10,11,13a,14,14a,15,16,16a-hexadecahydrocyclopropa[e]pyrrolo[1,2-a][1,4]diazacyclopentadecine-14a-carboxamide]	< 5.46 nM	< 5.46 nM	–	–
[2H]C([2H])([2H])C(C)(OC(=O)N[C@@H]1C(=O)N2C[C@H](Oc3nccc4c5c(ccc34)N(C)CCO5)C[C@H]2C(=O)N[C@]2(C(=O)NS(=O)(=O)C3CC3)C[C@H]2/C=C\CC[C@H](C)C[C@H]1C)C([2H])([2H])[2H] [Compound 5285, 1,1,1,3,3,3-hexadeutero-2-methylpropan-2-yl((2R,6S,7R,9S,13aS,14aR,16aS,Z)-14a-((cyclopropylsulfonyl)carbamoyl)-7,9-dimethyl-2-((4-methyl-3,4-dihydro-2H-[1,4]oxazino[2,3-f]isoquinolin-7-yl)oxy)-5,16-dioxo-1,2,3,5,6,7,8,9,10,11,13a,14,14a,15,16,16a-hexadecahydrocyclopropa[e]pyrrolo[1,2-a][1,4]diazacyclopentadecin-6-yl)carbamate]	< 5.46 nM	4.82 to 103 nM	–	–
[2H]C([2H])([2H])C(C)(OC(=O)N[C@@H]1C(=O)N2C[C@H](Oc3nccc4c5c(ccc34)N(C)CCO5)C[C@H]2C(=O)N[C@]2(C(=O)NS(=O)(=O)C3CC3)C[C@H]2/C=C\CC[C@@H](C)C[C@H]1C)C([2H])([2H])[2H] [Compound 5286, 1,1,1,3,3,3-hexadeutero-2-methylpropan-2-yl((2R,6S,7R,9R,13aS,14aR,16aS,Z)-14a-((cyclopropylsulfonyl)carbamoyl)-7,9-dimethyl-2-((4-methyl-3,4-dihydro-2H-[1,4]oxazino[2,3-f]isoquinolin-7-yl)oxy)-5,16-dioxo-1,2,3,5,6,7,8,9,10,11,13a,14,14a,15,16,16a-hexadecahydrocyclopropa[e]pyrrolo[1,2-a][1,4]diazacyclopentadecin-6-yl)carbamate]	< 5.46 nM	< 5.46 nM	–	–
[2H]C([2H])([2H])C(OC(=O)N[C@@H]1C(=O)N2C[C@H](Oc3nccc4c5c(ccc34)N(C)CCO5)C[C@H]2C(=O)N[C@]2(C(=O)NS(=O)(=O)C3CC3)C[C@H]2/C=C\CC[C@H](C)C[C@H]1C)(C([2H])([2H])[2H])C([2H])([2H])[2H] [Compound 5287, 1,1,1,3,3,3-hexadeutero-2-(trideuteromethyl)propan-2-yl((2R,6S,7R,9S,13aS,14aR,16aS,Z)-14a-((cyclopropylsulfonyl)carbamoyl)-7,9-dimethyl-2-((4-methyl-3,4-dihydro-2H-[1,4]oxazino[2,3-f]isoquinolin-7-yl)oxy)-5,16-dioxo-1,2,3,5,6,7,8,9,10,11,13a,14,14a,15,16,16a-hexadecahydrocyclopropa[e]pyrrolo[1,2-a][1,4]diazacyclopentadecin-6-yl)carbamate]	< 5.46 nM	< 5.46 nM	–	–
[2H]C([2H])([2H])C(OC(=O)N[C@@H]1C(=O)N2C[C@H](Oc3nccc4c5c(ccc34)N(C)CCO5)C[C@H]2C(=O)N[C@]2(C(=O)NS(=O)(=O)C3CC3)C[C@H]2/C=C\CC[C@@H](C)C[C@H]1C)(C([2H])([2H])[2H])C([2H])([2H])[2H] [Compound 5288, 1,1,1,3,3,3-hexadeutero-2-(trideuteromethyl)propan-2-yl((2R,6S,7R,9R,13aS,14aR,16aS,Z)-14a-((cyclopropylsulfonyl)carbamoyl)-7,9-dimethyl-2-((4-methyl-3,4-dihydro-2H-[1,4]oxazino[2,3-f]isoquinolin-7-yl)oxy)-5,16-dioxo-1,2,3,5,6,7,8,9,10,11,13a,14,14a,15,16,16a-hexadecahydrocyclopropa[e]pyrrolo[1,2-a][1,4]diazacyclopentadecin-6-yl)carbamate]	< 5.46 nM	< 5.46 nM	–	–
